From ChEMBL document CHEMBL1201862, “PubChem BioAssay data set” (2004)
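Method: 48-hour compound exposure of cells in 96-well plates, five concentrations, linear interpolation of endpoints. The concentration for 50% growth inhibition is given as GI50.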 Active and inactive are the calls of the source. No stated cut-off is given here; in the data, active = GI50 up to about 1.1 µM and inactive = higher.

Key:
Test in all cases: DTP human tumour cell line panel, 48 h
[1] = test system: RPMI-8226
[2] = test system: DMS-114
[3] = test system: HL-60
[4] = test system: SNB-19
[5] = test system: A549
[6] = test system: SF-539
[7] = test system: IGROV-1
[8] = test system: SW-620
[9] = test system: SNB-75
[10] = test system: RXF 393
[11] = test system: UO-31
[12] = test system: HT-29
[13] = test system: OVCAR-3
[14] = test system: SK-MEL-28
[15] = test system: HCC 2998
[16] = test system: OVCAR-4
[17] = test system: SN12C
[18] = test system: CAKI-1
[19] = test system: SK-MEL-5
[20] = test system: HOP-62

| SMILES | GI50 [1] | GI50 [2] | GI50 [3] | GI50 [4] | GI50 [5] | GI50 [6] | GI50 [7] | GI50 [8] | GI50 [9] | GI50 [10] | GI50 [11] | GI50 [12] | GI50 [13] | GI50 [14] | GI50 [15] | GI50 [16] | GI50 [17] | GI50 [18] | GI50 [19] | GI50 [20] |
| --- | --- | --- | --- | --- | --- | --- | --- | --- | --- | --- | --- | --- | --- | --- | --- | --- | --- | --- | --- | --- |
| CCCCN(C)/N=N/c1[nH]cnc1C(N)=O | > 100 µM (inactive) | > 100 µM (inactive) | 60.7 µM (inactive) | > 100 µM (inactive) | > 100 µM (inactive) | > 100 µM (inactive) | > 77.8 µM (inactive) | > 100 µM (inactive) | > 100 µM (inactive) | > 66.7 µM (inactive) | > 100 µM (inactive) | > 100 µM (inactive) | 99.5 µM (inactive) | > 100 µM (inactive) | > 94.4 µM (inactive) | 68.9 µM (inactive) | > 100 µM (inactive) | 20.3 µM (inactive) | > 100 µM (inactive) |  |
| O=C1C2=C(C3=NCCc4c[nH]c1c43)c1c(cc(Br)c(O)c1Br)CCN2 | 5.01 µM (inactive) | 2.96 µM (inactive) | 3.48 µM (inactive) | 17.9 µM (inactive) | 18.6 µM (inactive) | 13.5 µM (inactive) | 13.6 µM (inactive) | 15.2 µM (inactive) | 16.3 µM (inactive) | 14.8 µM (inactive) | 18.2 µM (inactive) | 6.59 µM (inactive) | 2.73 µM (inactive) | 17.2 µM (inactive) | 5.55 µM (inactive) | 11 µM (inactive) | 14.1 µM (inactive) | 20.3 µM (inactive) | 9.1 µM (inactive) | 25.3 µM (inactive) |
| CC1=NCCc2cc3[nH]c4ccccc4c3cc21 | 13.2 µM (inactive) | 11.6 µM (inactive) | 12.1 µM (inactive) | 49.1 µM (inactive) | 33.2 µM (inactive) | 12.6 µM (inactive) | 26.9 µM (inactive) | 15.7 µM (inactive) | 23.2 µM (inactive) | 6.4 µM (inactive) | 17.6 µM (inactive) | 14.8 µM (inactive) | 50.2 µM (inactive) | 10.7 µM (inactive) | 24 µM (inactive) | 47.5 µM (inactive) | 17.5 µM (inactive) | 5.32 µM (inactive) | 11.8 µM (inactive) | 49.3 µM (inactive) |
| Cc1ccc(C(=O)N2c3ccccc3N(C)n3cccc3C2CC(=O)O)cc1 (stereo not drawn) | > 100 µM (inactive) | > 100 µM (inactive) | > 100 µM (inactive) | > 100 µM (inactive) | > 100 µM (inactive) | > 100 µM (inactive) | > 100 µM (inactive) | > 100 µM (inactive) | > 100 µM (inactive) | > 100 µM (inactive) | > 100 µM (inactive) | > 100 µM (inactive) | > 100 µM (inactive) | > 100 µM (inactive) | > 100 µM (inactive) | > 100 µM (inactive) | > 100 µM (inactive) | > 100 µM (inactive) | > 100 µM (inactive) | > 100 µM (inactive) |
| COc1ccccc1OCC(COC(=O)Nc1ccccc1)OC(=O)Nc1ccccc1 (stereo not drawn) |  | 47.1 µM (inactive) | 40.6 µM (inactive) | 31.5 µM (inactive) | 50.6 µM (inactive) | 17.2 µM (inactive) | > 100 µM (inactive) | > 100 µM (inactive) | 17.1 µM (inactive) | 12.8 µM (inactive) | 49.3 µM (inactive) | 59.8 µM (inactive) | > 100 µM (inactive) | > 100 µM (inactive) | > 100 µM (inactive) | 55.3 µM (inactive) | 28.5 µM (inactive) | 20.3 µM (inactive) | 79.3 µM (inactive) | 56.6 µM (inactive) |
| C/C=C1\C[C@@H]2C(OC)Nc3cc(O)c(OC)cc3C(=O)N2C1 (stereo partly drawn) | < 0.01 µM (active) | 0.00118 µM (active) | < 0.01 µM (active) | 0.0074 µM (active) | < 0.01 µM (active) | < 0.01 µM (active) | < 0.01 µM (active) | < 0.01 µM (active) | < 0.01 µM (active) | < 0.01 µM (active) | < 0.01 µM (active) | < 0.01 µM (active) | < 0.01 µM (active) | < 0.0107 µM (active) | 0.0158 µM (active) | < 0.01 µM (active) | < 0.01 µM (active) | < 0.01 µM (active) | < 0.01 µM (active) | < 0.01 µM (active) |
